In US20190248768A1, “METHOD FOR PURIFYING BENZOPYRAN DERIVATIVE, CRYSTAL FORM THEREOF, AND METHOD FOR PREPARING CRYSTAL FORM” (priority 2015, published 2019):

Key:
Format in all cases: physicochemical
[1] = Thermal stability test; conditions: 100° C.
Protocol: (§1) In the following examples and experimental examples, the high performance liquid chromatography (HPLC) analyses were carried out under the following conditions: • Analytical column: C18, 4.6×250 mm, 5 μm • Mobile phase: buffer solution/acetonitrile=40/60 (v/v) • Buffer solution: ammonium formate (0.657 g) was taken and then added to a 1 L volumetric flask. Water was added thereto to the mark so as to dissolve ammonium formate and then the pH of the resulting solution was adjusted to pH 5.5±0.2 with a diluted formic acid. • Wavelength: 254 nm • Column temperature: 30° C. • Flow rate: 1.0 mL/min. • Injection volume: 10 μL
(§2) The X-ray powder diffraction (XRPD) analyses were carried out with the PANalytical's X-pert Pro X-ray powder diffractometer. The measurements at the angles ranging from 3 to 80°2θ values were performed at a scanning rate of 3° per second, using CuKα1 radiation (λα1=1.54060 Å) produced at the conditions of 40 mA and 40 kV.
The crystalline form A of the compound of Formula 1 obtained in Example 1 and the amorphous form of the compound of Formula 1 obtained in Preparation Example were stored at the heat-condition (100° C.) for 2 weeks, so as to evaluate the stabilities thereof.

[2] = Accelerated stability test
Protocol: as §1, §2
The crystalline form A of the compound of Formula 1 obtained in Example 1 and the amorphous form of the compound of Formula 1 obtained in Preparation Example were stored at the accelerated condition (40° C., 75% RH) for 2 weeks, so as to evaluate the stabilities thereof.

[3] = Stability test on humidity
Protocol: as §1, §2
The crystalline form A of the compound of Formula 1 obtained in Example 1 and the amorphous form of the compound of Formula 1 obtained in Preparation Example were stored at the humid condition (25° C., 98% RH) for 2 weeks, so as to evaluate the stabilities thereof.

SMILES | Purity (as an anhydrous form) ([1]; 2 weeks) | Water contents ([1]; 2 weeks) | Purity (as an anhydrous form) ([1]; Initial) | Water contents ([1]; Initial) | change in the appearance ([1]; during 2 weeks) | enantiomer during the test period ([1]; during 2 weeks) | Water contents ([2]; 40° C., 75% RH, 1 week) | Purity (as an anhydrous form) ([2]; 40° C., 75% RH, 2 weeks) | Water contents ([2]; 40° C., 75% RH, 2 weeks) | Water contents ([2]; 40° C., 75% RH, 1 day) | Water contents ([2]; 40° C., 75% RH, 2 days) | Purity (as an anhydrous form) ([2]; 40° C., 75% RH, Initial) | Water contents ([2]; 40° C., 75% RH, Initial) | Water contents ([3]; 25° C., 98% RH, 1 week) | Purity (as an anhydrous form) ([3]; 25° C., 98% RH, 2 weeks) | Water contents ([3]; 25° C., 98% RH, 2 weeks) | Water contents ([3]; 25° C., 98% RH, 1 day) | Water contents ([3]; 25° C., 98% RH, 2 days) | Purity (as an anhydrous form) ([3]; 25° C., 98% RH, Initial) | Water contents ([3]; 25° C., 98% RH, Initial) | further results
COC(OC)[C@]1(C)Oc2ccc(N)cc2[C@H](N(Cc2ncc[nH]2)c2ccc(Cl)cc2)[C@H]1O [crystalline form A of the compound of Formula 1] [(2R,3R,4S)-6-amino-4-[N-(4-chlorophenyl)-N-(1H-imidazol-2-ylmethyl)amino]-3-hydroxy-2-methyl-2-dimethoxymethyl-3,4-dihydro-2H-1-benzopyran] | 99.25% | 0.11% | 99.43% | 0.16% | changed to pale yellow color from the first week | no enantiomer was detected | 0.17% | 99.34% | 0.18% | 0.18% | 0.18% | 99.43% | 0.16% | 0.29% | 99.32% | 0.27% | 0.21% | 0.24% | 99.43% | 0.16% | XRPD analyses, crystalline form maintained ([1]; during 2 weeks): the same crystalline form A was maintained; XRPD analyses, crystalline form maintained ([2]; 40° C., 75% RH, during 2 weeks): the same crystalline form A was maintained; change in the appearance ([2]; 40° C., 75% RH, during 2 weeks): without any change in the appearance; enantiomer during the test period ([2]; 40° C., 75% RH, during 2 weeks): no enantiomer was detected; XRPD analyses, crystalline form maintained ([3]; 25° C., 98% RH, during 2 weeks): the same crystalline form A was maintained; change in the appearance ([3]; 25° C., 98% RH, during 2 weeks): without any change in the appearance; enantiomer during the test period ([3]; 25° C., 98% RH, during 2 weeks): no enantiomer was detected
COC(OC)[C@]1(C)Oc2ccc(N)cc2[C@H](N(Cc2ncc[nH]2)c2ccc(Cl)cc2)[C@H]1O [amorphous form of the compound of Formula 1] [(2R,3R,4S)-6-amino-4-[N-(4-chlorophenyl)-N-(1H-imidazol-2-ylmethyl)amino]-3-hydroxy-2-methyl-2-dimethoxymethyl-3,4-dihydro-2H-1-benzopyran] | 92.34% | 0.34% | 96.96% | 1.05% | changed to brown color from the first day | no enantiomer was detected | 2.52% | 96.72% | 2.60% | 2.30% | 2.64% | 96.96% | 1.05% | 3.90% | 96.55% | 3.58% | 3.20% | 3.60% | 96.96% | 1.05% | water contents over the storing time ([2]; 40° C., 75% RH, during 2 weeks): up to 2.64%; hygroscopicity ([2]; accelerated condition (40° C., 75% RH)): very high hygroscopicity; Water contents ([2]; accelerated condition, in 1 day): 2.30 wt/wt %; enantiomer during the test period ([3]; 25° C., 98% RH, during 2 weeks): no enantiomer was detected; water contents over the storing time ([3]; 25° C., 98% RH, during 2 weeks): up to 3.90%; hygroscopicity ([3]; humid condition (25° C., 98% RH)): very high hygroscopicity
